Our source for the k on, k off and Kd values is ChEMBL document CHEMBL1128987, “Benzenesulfonamide-peptide conjugates as probes for secondary binding sites near the active site of carbonic anhydrase” (Bioorg Med Chem Lett, 1996).

Where “and” joins values, the source holds several entries; their conditions need not be identical. Equal entries are not always repeated. Where a SMILES comes first, the peptide text is derived from it. [ ]: non-standard residue; d: D form. The star is where a group is joined. Benzoyl(4-SO2NH2) = NS(=O)(=O)c1ccc(C(=O)*)cc1; Phe(4-Cl) = N[C@@H](Cc1ccc(Cl)cc1)C(=O)O; Nle = CCCC[C@H](N)C(=O)O

Assay [1] concerns the target T1, Carbonic anhydrase 2 (Homo sapiens, UniProt P00918).
Description: Kinetic constant for binding human carbonic anhydrase II (Kon=Kd x Koff)
Assay [2] has as its target T1, Carbonic anhydrase 2. The source holds these as a separate data set.
Description: Kinetic constant for binding human carbonic anhydrase II
The target in assay [3] is T1, Carbonic anhydrase 2. The experiment in a line: Dissociation constant against human carbonic anhydrase II at 37 degree Centigrade.
The target in assay [4] is T1, Carbonic anhydrase 2. The experiment in a line: Dissociation constant was determined against human carbonic anhydrase II at 37 degree Centigrade in experiment 2.
The target of assay [5] is T1, Carbonic anhydrase 2. The experiment in a line: Dissociation constant was determined against human carbonic anhydrase II at 37 degree Celsius in experiment 1.

In the case of `NS(=O)(=O)c1ccc(C(=O)NCC(=O)NCC(=O)NCC(=O)N[C@@H](Cc2ccc(Cl)cc2)C(=O)O)cc1` ({Benzoyl(4-SO2NH2)}-GGG[Phe(4-Cl)]-OH), the k on on Carbonic anhydrase 2 [1] came out at 850000 M⁻¹ s⁻¹. On Carbonic anhydrase 2 [2], this molecule returned a k off of 0.084 s⁻¹. Besides, the Kd (as a rule, the free concentration of one partner at which half of the binding sites on the other are occupied at equilibrium, for simple one-to-one binding) at Carbonic anhydrase 2 [3] is 96 nM and 99 nM.
Take `NS(=O)(=O)c1ccc(C(=O)NCC(=O)O)cc1`: the Kd at Carbonic anhydrase 2 [4] worked out at 330 nM; on Carbonic anhydrase 2 [5] it was 310 nM. At Carbonic anhydrase 2 [2], this molecule yielded a k off of 0.12 s⁻¹.
At Carbonic anhydrase 2 [2], `CCCCC(NC(=O)c1ccc(S(N)(=O)=O)cc1)C(=O)O` (stereo not given) yielded a k off of 0.011 s⁻¹. Moreover, binding on Carbonic anhydrase 2 [3] was put at a Kd of 5 nM.
On Carbonic anhydrase 2 [1], `CCCC[C@H](NC(=O)CNC(=O)CNC(=O)CNC(=O)c1ccc(S(N)(=O)=O)cc1)C(=O)O` ({Benzoyl(4-SO2NH2)}-GGG[Nle]-OH) came in with a k on of 420000 M⁻¹ s⁻¹. The k off at Carbonic anhydrase 2 [2] came to 0.093 s⁻¹. For the same molecule, at Carbonic anhydrase 2 [3], the Kd is 190 nM and 220 nM.
Molecule `NS(=O)(=O)c1ccc(C(=O)NCC(=O)NCC(=O)NCC(=O)NCC(=O)O)cc1` ({Benzoyl(4-SO2NH2)}-GGGG-OH) had a k on on Carbonic anhydrase 2 [1] of 250000 M⁻¹ s⁻¹. Moreover, at Carbonic anhydrase 2 [2], the k off was 0.09 s⁻¹. Also, the dissociation constant (Kd) at Carbonic anhydrase 2 [3] was 390 nM and 360 nM.
As for `NS(=O)(=O)c1ccc(C(=O)NC(CCC(=O)O)C(=O)O)cc1` (stereo not given), the dissociation constant (Kd) on Carbonic anhydrase 2 [3] amounted to 530 nM.
Regarding `CCC(C)C(NC(=O)c1ccc(S(N)(=O)=O)cc1)C(=O)O` (stereo not given), the Kd at Carbonic anhydrase 2 [3] was 9 nM.
Regarding `NS(=O)(=O)c1ccc(C(=O)NC(Cc2ccc([N+](=O)[O-])cc2)C(=O)O)cc1` (stereo not given), at Carbonic anhydrase 2 [3], the equilibrium dissociation constant (Kd) was 22 nM.
On Carbonic anhydrase 2 [3], `NC(=O)C[C@H](NC(=O)CNC(=O)CNC(=O)c1ccc(S(N)(=O)=O)cc1)C(=O)O` yielded a Kd of 270 nM.
The molecule `CC(C)C(NC(=O)CNC(=O)c1ccc(S(N)(=O)=O)cc1)C(=O)O` (stereo not given) showed a Kd on Carbonic anhydrase 2 [3] of 140 nM.
Same read-out and setting: the same measure for `CC[C@H](C)[C@H](NC(=O)CNC(=O)CNC(=O)CNC(=O)c1ccc(S(N)(=O)=O)cc1)C(=O)O`: 230 nM; for `Nc1ccc(CC(NC(=O)c2ccc(S(N)(=O)=O)cc2)C(=O)O)cc1` (stereo not given): 64 nM.
On the same count and under the same terms, the same measure for `NS(=O)(=O)c1ccc(C(=O)NCC(=O)NCC(=O)NCC(=O)N[C@@H](Cc2ccc(F)cc2)C(=O)O)cc1`: 140 nM; for `Nc1ccc(C[C@H](NC(=O)CNC(=O)CNC(=O)c2ccc(S(N)(=O)=O)cc2)C(=O)O)cc1`: 210 nM.
On the same count and under the same terms, to `NS(=O)(=O)c1ccc(C(=O)NCC(=O)NCC(=O)N[C@@H](Cc2ccc(Cl)cc2)C(=O)O)cc1` belongs 94 nM; to `Nc1ccc(C[C@H](NC(=O)CNC(=O)CNC(=O)CNC(=O)c2ccc(S(N)(=O)=O)cc2)C(=O)O)cc1`, 190 nM.
The molecule `CC(C)C[C@H](NC(=O)CNC(=O)CNC(=O)CNC(=O)c1ccc(S(N)(=O)=O)cc1)C(=O)O` had an equilibrium dissociation constant (Kd) on Carbonic anhydrase 2 [3] of 210 nM.
Same read-out and setting: to `NS(=O)(=O)c1ccc(C(=O)NCC(=O)NCC(=O)N[C@@H](Cc2ccc(F)cc2)C(=O)O)cc1` belongs 120 nM; to `CC(C)[C@H](NC(=O)CNC(=O)CNC(=O)c1ccc(S(N)(=O)=O)cc1)C(=O)O`, 260 nM.
Consider `N=C(N)NCCCC(NC(=O)c1ccc(S(N)(=O)=O)cc1)C(=O)O` (stereo not given), for which binding on Carbonic anhydrase 2 [3] was characterised by a dissociation constant (Kd) of 220 nM.
On to `NS(=O)(=O)c1ccc(C(=O)NCC(=O)NCC(=O)NCC(=O)O)cc1`, for which the Kd at Carbonic anhydrase 2 [3] was found to be 230 nM.
Still for that read-out and setting: to `NS(=O)(=O)c1ccc(C(=O)NCC(=O)NCC(=O)NCC(=O)N[C@@H](CCC(=O)O)C(=O)O)cc1` belongs 371 nM.
The molecule `N=C(N)NCCC[C@H](NC(=O)CNC(=O)CNC(=O)CNC(=O)c1ccc(S(N)(=O)=O)cc1)C(=O)O` registered an equilibrium dissociation constant (Kd) at Carbonic anhydrase 2 [3] of 290 nM.
In the case of `NS(=O)(=O)c1ccc(C(=O)NCC(=O)NCC(=O)NCC(=O)N[C@@H](CC(=O)O)C(=O)O)cc1`, at Carbonic anhydrase 2 [3], the dissociation constant (Kd) turned out to be 300 nM.
Still for that read-out and setting: the same measure for `NS(=O)(=O)c1ccc(C(=O)NCC(=O)NCC(=O)NCC(=O)N[C@@H](Cc2ccccc2)C(=O)O)cc1`: 200 nM; for `NS(=O)(=O)c1ccc(C(=O)NCC(=O)NC(Cc2ccccc2)C(=O)O)cc1` (stereo not given): 140 nM.
`NS(=O)(=O)c1ccc(C(=O)NC(Cc2ccc(Cl)cc2)C(=O)O)cc1` (stereo not given) returned a k off on Carbonic anhydrase 2 [2] of 0.022 s⁻¹. In addition, the dissociation constant Kd at Carbonic anhydrase 2 [3] is 15 nM and 14 nM.
`NS(=O)(=O)c1ccc(C(=O)NCC(=O)NC(CO)C(=O)O)cc1` (stereo not given): the equilibrium dissociation constant (Kd) at Carbonic anhydrase 2 [3] is 280 nM.
With `NS(=O)(=O)c1ccc(C(=O)NCC(=O)NCC(=O)N[C@@H](Cc2ccccc2)C(=O)O)cc1`, binding on Carbonic anhydrase 2 [3] was characterised by a dissociation constant (Kd) of 140 nM.
Same read-out and setting: to `CC(C)C[C@H](NC(=O)CNC(=O)CNC(=O)c1ccc(S(N)(=O)=O)cc1)C(=O)O` belongs 210 nM.
